The results in this text go back to ChEMBL document CHEMBL1201862, “PubChem BioAssay data set” (2004).

Test systems include SK-MEL-2; HCT-15; A498; SF-268; Malme-3M; IGROV-1; PC-3; SN12C; ACHN; EKVX; SF-539; SR; HCT-116; MOLT-4; HT-29; OVCAR-4; NCI-H460; MDA-MB-435; Hs-578T; NCI-H23.
What all share (test): NCI-60 cell line screen, 48 h

Molecules are shown by their SMILES.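 Method: 48-hour compound exposure of cells in 96-well plates, five concentrations, linear interpolation of endpoints. GI50 marks 50% less growth.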 The source made the active and inactive calls. No stated cut-off is given here; in the data, active = GI50 up to about 1.1 µM and inactive = higher.

In the case of `O=C1c2ccccc2NC(=S)[C@@H]2CCCN12`, the GI50 in the assay on SK-MEL-2 is > 100 µM (inactive); with HCT-15 it was over 100 µM; in the assay on A498, > 100 µM (inactive); in the assay on SF-268, > 100 µM (inactive); with Malme-3M it was > 100 µM (inactive); in the assay with IGROV-1 it was > 100 µM (inactive). Besides, the GI50 in the assay with PC-3, with SN12C, in the assay with ACHN, with EKVX, in the assay on SF-539 and in the assay with SR was > 100 µM (inactive) throughout. For the same compound, the GI50 in the assay on HCT-116, in the assay with MOLT-4, in the assay on HT-29, in the assay with OVCAR-4, in the assay with NCI-H460 and in the assay with MDA-MB-435 was > 100 µM (inactive) each time. The GI50 in the assay on Hs-578T and in the assay on NCI-H23 was > 100 µM (inactive) throughout.
Regarding `CC1=C(/C=C/C(C)=C/C=C/C(C)=C/C(=O)O)C(C)(C)CCC1` [TRETINOIN], the GI50 in the assay on SK-MEL-2 was 28.9 µM (inactive); in the assay on HCT-15, 48.2 µM; in the assay on A498, > 74.5 µM (inactive); in the assay with SF-268, > 62.5 µM (inactive); with Malme-3M, 46.3 µM (inactive); with IGROV-1, > 78.9 µM (inactive). Besides, the GI50 in the assay with PC-3 was 39.6 µM (inactive); in the assay with SN12C, 52 µM (inactive); with ACHN, 48.5 µM (inactive); with EKVX, > 100 µM (inactive); in the assay on SF-539, 48.6 µM (inactive); in the assay on SR, 47 µM (inactive). The GI50 in the assay on HCT-116 is 48.6 µM (inactive); with MOLT-4, 43.6 µM (inactive); in the assay with HT-29 it was 47.6 µM (inactive); in the assay on OVCAR-4, > 70 µM (inactive); in the assay with NCI-H460, 48.8 µM (inactive); in the assay with MDA-MB-435, > 58.5 µM (inactive). For the same compound, the results for the GI50 in the assay on Hs-578T and in the assay on NCI-H23 were > 43 µM (inactive) and 55.3 µM (inactive), respectively.
As to `Nc1ccn(C2CCC(CO)O2)c(=O)n1` (stereo unspecified), the GI50 in the assay with SK-MEL-2 was > 100 µM (inactive); with HCT-15, over 100 µM; in the assay with A498, > 91.8 µM (inactive); with SF-268 it was > 62.8 µM (inactive); in the assay on Malme-3M, > 100 µM (inactive); in the assay on IGROV-1, > 100 µM (inactive). The GI50 in the assay on PC-3 was > 1000 µM (inactive); in the assay with SN12C, > 100 µM (inactive); with ACHN it was 785 µM (inactive); with EKVX, > 100 µM (inactive); in the assay on SF-539, > 100 µM (inactive); in the assay with SR, 367 µM (inactive). Also, the GI50 in the assay on HCT-116 is > 100 µM (inactive); in the assay with MOLT-4, 63.8 µM (inactive); in the assay with HT-29, > 100 µM (inactive); with OVCAR-4, > 83 µM (inactive); in the assay on NCI-H460, > 100 µM (inactive); in the assay with MDA-MB-435, > 1000 µM (inactive). Besides, the GI50 with Hs-578T was > 1000 µM (inactive); with NCI-H23, > 100 µM (inactive).
As for `CCC/N=C(/NC(=O)c1ccc(Cl)cc1)SC`, the GI50 is > 100 µM (inactive) with SK-MEL-2; 47.9 µM in the assay on HCT-15; 27.4 µM (inactive) in the assay with A498; 88.9 µM (inactive) in the assay on SF-268; > 100 µM (inactive) with Malme-3M; > 100 µM (inactive) in the assay with IGROV-1. The GI50 in the assay with PC-3 is 80.5 µM (inactive); in the assay on SN12C it was > 100 µM (inactive); in the assay with ACHN, 39.8 µM (inactive); with EKVX, > 100 µM (inactive); in the assay on SF-539 it was > 100 µM (inactive); in the assay on SR, 36.8 µM (inactive). Moreover, the GI50 was > 100 µM (inactive) in the assay with HCT-116; 58.7 µM (inactive) in the assay with MOLT-4; 97.3 µM (inactive) in the assay with HT-29; 50.9 µM (inactive) in the assay with OVCAR-4; 90.6 µM (inactive) with NCI-H460; > 100 µM (inactive) with MDA-MB-435. In addition, the GI50 with Hs-578T was 12.1 µM (inactive); in the assay on NCI-H23, 46.3 µM (inactive).
As to `N[C@H]1c2c(Br)sc(Br)c2C(=O)[C@H]1O`, the GI50 with SK-MEL-2 is 23.9 µM (inactive); with HCT-15 it was 6.78 µM; in the assay on A498, > 100 µM (inactive); with SF-268 it was 24.9 µM (inactive); in the assay on Malme-3M it was 11.6 µM (inactive); in the assay on IGROV-1 it was 14 µM (inactive). The GI50 was 28.5 µM (inactive) in the assay on PC-3; 1.56 µM (inactive) in the assay on SN12C; 24.7 µM (inactive) with ACHN; 12.9 µM (inactive) in the assay on EKVX; 18.5 µM (inactive) with SF-539; 2.69 µM (inactive) with SR. The GI50 with HCT-116 is 16.4 µM (inactive); in the assay with MOLT-4, 5.14 µM (inactive); with HT-29, 11.2 µM (inactive); in the assay with OVCAR-4, 11.4 µM (inactive); in the assay with NCI-H460, 19.2 µM (inactive); with MDA-MB-435, 13.7 µM (inactive). Moreover, the GI50 in the assay with Hs-578T is 31 µM (inactive); in the assay on NCI-H23 it was 3.64 µM (inactive).
Turning to `N#Cc1c(-c2ccc([N+](=O)[O-])cc2)c2c([nH]c1=O)-c1ccccc1CCC2`, the GI50 with SK-MEL-2 is 97.9 µM (inactive); in the assay on HCT-15, 31.3 µM; with A498 it was 46.3 µM (inactive); in the assay with SF-268, 68.7 µM (inactive); with Malme-3M, 56.6 µM (inactive); with IGROV-1, 46.8 µM (inactive). Further, the GI50 in the assay with PC-3 was 80.2 µM (inactive); in the assay on SN12C, > 100 µM (inactive); in the assay on ACHN it was 37.5 µM (inactive); in the assay with EKVX it was > 100 µM (inactive); in the assay on SF-539, 52.7 µM (inactive); in the assay with SR, 29.6 µM (inactive). The GI50 is 60.4 µM (inactive) in the assay with HCT-116; 39.4 µM (inactive) with MOLT-4; 55.3 µM (inactive) in the assay on HT-29; 65.6 µM (inactive) in the assay on OVCAR-4; 51.1 µM (inactive) in the assay with NCI-H460; 67.1 µM (inactive) in the assay on MDA-MB-435. The GI50 with Hs-578T is 75 µM (inactive); in the assay on NCI-H23, > 100 µM (inactive).
As to `O=C1Nc2ccccc2S/C1=C\c1ccc(C(F)(F)F)cc1`, the GI50 in the assay on SK-MEL-2 was > 100 µM (inactive); in the assay with HCT-15, over 100 µM; in the assay with A498 it was > 100 µM (inactive); in the assay with SF-268 it was > 100 µM (inactive); with Malme-3M it was > 100 µM (inactive); in the assay with IGROV-1, > 100 µM (inactive). The GI50 in the assay on PC-3 was > 100 µM (inactive); in the assay on SN12C, > 100 µM (inactive); in the assay with ACHN, > 100 µM (inactive); with EKVX it was 55.1 µM (inactive); in the assay with SF-539 it was > 100 µM (inactive); in the assay with SR, > 100 µM (inactive). The GI50 in the assay on HCT-116, in the assay on MOLT-4, in the assay on HT-29, in the assay with OVCAR-4, in the assay with NCI-H460 and with MDA-MB-435 was > 100 µM (inactive) in each case. Besides, the GI50 in the assay on Hs-578T was > 100 µM (inactive).
As for `CS(=O)(=O)OCCN1CCC2(CC1)SSC1(CCN(CCOS(C)(=O)=O)CC1)S2`, the GI50 with SK-MEL-2 was > 100 µM (inactive); in the assay with HCT-15 it was over 100 µM; in the assay with A498 it was 0.352 µM (active); in the assay on SF-268, 22.3 µM (inactive); with Malme-3M it was 22.8 µM (inactive); with IGROV-1, 50.8 µM (inactive). The GI50 with PC-3 was 44.7 µM (inactive); in the assay on SN12C it was 43 µM (inactive); in the assay on ACHN, 33.5 µM (inactive); in the assay with SF-539 it was 27.7 µM (inactive); in the assay with SR it was 14.1 µM (inactive); in the assay with HCT-116, 53.2 µM (inactive). In addition, the GI50 in the assay with MOLT-4 is 31.8 µM (inactive); in the assay on HT-29, 50.5 µM (inactive); in the assay on OVCAR-4 it was 62.1 µM (inactive); in the assay with NCI-H460 it was 34.8 µM (inactive); in the assay on MDA-MB-435 it was > 100 µM (inactive); with Hs-578T it was 82.6 µM (inactive). Moreover, the GI50 in the assay with NCI-H23 is 60 µM (inactive).
Take `O=C1C=CC(=O)N1n1c(-c2ccccc2)n[nH]c1=O`: the GI50 is > 100 µM (inactive) in the assay with SK-MEL-2; over 100 µM with HCT-15; > 100 µM (inactive) with A498; > 100 µM (inactive) in the assay on SF-268; > 100 µM (inactive) with Malme-3M; > 100 µM (inactive) in the assay with IGROV-1. Further, the GI50 in the assay with PC-3, in the assay on SN12C, in the assay on EKVX, in the assay with SF-539, with SR and in the assay on HCT-116 was > 100 µM (inactive) in each case. The GI50 in the assay on MOLT-4, in the assay on HT-29, in the assay on OVCAR-4, with NCI-H460, in the assay on MDA-MB-435 and in the assay with Hs-578T was > 100 µM (inactive) in each case. The GI50 with NCI-H23 is > 100 µM (inactive).
For `Cc1ccc(S(=O)(=O)C2=C([Si](C)(C)C)C3CC2[C@@H]2C4C=CC(CC4)[C@H]32)cc1` (stereo partly specified), the GI50 in the assay with SK-MEL-2 is 23.3 µM (inactive); with HCT-15, over 100 µM; with A498, > 100 µM (inactive); in the assay on SF-268 it was 38.1 µM (inactive); in the assay with Malme-3M, > 100 µM (inactive); with IGROV-1, 85.5 µM (inactive). Besides, the GI50 in the assay with PC-3 was 35.3 µM (inactive); in the assay with SN12C, > 100 µM (inactive); with ACHN, 99.5 µM (inactive); in the assay on EKVX, > 100 µM (inactive); in the assay with SF-539, 25.6 µM (inactive); with SR, > 100 µM (inactive). Also, the GI50 is > 100 µM (inactive) in the assay on HCT-116; > 100 µM (inactive) in the assay with MOLT-4; > 100 µM (inactive) in the assay on HT-29; > 100 µM (inactive) with OVCAR-4; 86.1 µM (inactive) with NCI-H460; > 100 µM (inactive) with MDA-MB-435. In addition, the GI50 in the assay on Hs-578T was 39.1 µM (inactive).
